Publication PMC4979471 (Cell Death Discovery, 2015)
Read-outs that look alike come from different tables or passages of the source.

Columns and labels:
Experiment in all cases: Kinase selectivity, P33-radiolabeled assay
Assay type in all cases: biochemical
Conditions in all cases: 10 μM ATP
[1] = target: T1, PBK/TOPK (Homo sapiens, UniProt Q96KB5)
T1 construct: purchased Reaction Biology Corp
T1 sequence (Q96KB5 1-322): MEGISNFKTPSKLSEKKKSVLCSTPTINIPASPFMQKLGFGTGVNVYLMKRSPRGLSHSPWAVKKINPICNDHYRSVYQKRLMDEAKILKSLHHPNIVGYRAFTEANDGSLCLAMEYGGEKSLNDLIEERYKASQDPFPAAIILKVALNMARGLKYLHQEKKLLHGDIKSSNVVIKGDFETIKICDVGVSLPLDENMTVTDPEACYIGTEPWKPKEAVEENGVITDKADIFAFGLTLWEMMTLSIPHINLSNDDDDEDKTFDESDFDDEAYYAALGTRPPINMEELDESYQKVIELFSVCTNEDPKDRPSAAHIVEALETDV
Procedure, shortened: (§1)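 Each enzyme was exposed to 10 μM compound, with duplicate measurements, in reactions containing 10 μM ATP. Numbers are remaining activity as a percent of the vehicle (DMSO) signal.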

[2] = target: T2, P38b/MAPK11 (Homo sapiens, UniProt Q15759)
T2 construct: purchased Reaction Biology Corp
Procedure, shortened: as §1

[3] = target: T3, SRPK1 (Homo sapiens, UniProt Q96SB4)
T3 construct: purchased Reaction Biology Corp
Procedure, shortened: as §1

[4] = target: T4, RSK1 (Homo sapiens, UniProt Q15418)
T4 construct: purchased Reaction Biology Corp
Procedure, shortened: as §1

[5] = target: T5, SIK1 (Homo sapiens, UniProt P57059)
T5 construct: purchased Reaction Biology Corp
Procedure, shortened: as §1

[6] = target: T6, TYRO3/SKY (Homo sapiens, UniProt Q06418)
T6 construct: purchased Reaction Biology Corp
T6 sequence (Q06418 41-890): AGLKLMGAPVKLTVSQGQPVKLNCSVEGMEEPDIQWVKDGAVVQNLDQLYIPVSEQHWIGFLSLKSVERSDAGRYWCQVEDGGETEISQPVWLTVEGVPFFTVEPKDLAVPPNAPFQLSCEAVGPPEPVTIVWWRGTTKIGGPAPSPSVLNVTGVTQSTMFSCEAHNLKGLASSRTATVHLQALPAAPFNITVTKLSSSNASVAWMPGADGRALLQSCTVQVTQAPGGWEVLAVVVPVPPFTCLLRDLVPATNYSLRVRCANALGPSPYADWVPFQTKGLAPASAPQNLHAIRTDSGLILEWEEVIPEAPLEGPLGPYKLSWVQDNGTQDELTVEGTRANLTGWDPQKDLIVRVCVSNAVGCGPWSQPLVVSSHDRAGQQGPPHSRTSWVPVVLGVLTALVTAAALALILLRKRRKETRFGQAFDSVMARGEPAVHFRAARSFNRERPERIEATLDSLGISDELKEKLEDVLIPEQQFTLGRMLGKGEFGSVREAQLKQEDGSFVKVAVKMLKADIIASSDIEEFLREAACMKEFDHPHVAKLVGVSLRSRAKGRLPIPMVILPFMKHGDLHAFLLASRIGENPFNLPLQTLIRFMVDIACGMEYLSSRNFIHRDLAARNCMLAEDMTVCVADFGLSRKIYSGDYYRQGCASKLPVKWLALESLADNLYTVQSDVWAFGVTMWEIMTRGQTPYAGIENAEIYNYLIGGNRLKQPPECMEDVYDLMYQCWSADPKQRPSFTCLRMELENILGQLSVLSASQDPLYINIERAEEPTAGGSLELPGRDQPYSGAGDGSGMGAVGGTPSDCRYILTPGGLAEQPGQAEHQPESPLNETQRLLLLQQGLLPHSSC
Procedure, shortened: as §1

[7] = target: T7, EPHA8 (Homo sapiens, UniProt P29322)
T7 construct: purchased Reaction Biology Corp
T7 sequence (P29322 28-1005): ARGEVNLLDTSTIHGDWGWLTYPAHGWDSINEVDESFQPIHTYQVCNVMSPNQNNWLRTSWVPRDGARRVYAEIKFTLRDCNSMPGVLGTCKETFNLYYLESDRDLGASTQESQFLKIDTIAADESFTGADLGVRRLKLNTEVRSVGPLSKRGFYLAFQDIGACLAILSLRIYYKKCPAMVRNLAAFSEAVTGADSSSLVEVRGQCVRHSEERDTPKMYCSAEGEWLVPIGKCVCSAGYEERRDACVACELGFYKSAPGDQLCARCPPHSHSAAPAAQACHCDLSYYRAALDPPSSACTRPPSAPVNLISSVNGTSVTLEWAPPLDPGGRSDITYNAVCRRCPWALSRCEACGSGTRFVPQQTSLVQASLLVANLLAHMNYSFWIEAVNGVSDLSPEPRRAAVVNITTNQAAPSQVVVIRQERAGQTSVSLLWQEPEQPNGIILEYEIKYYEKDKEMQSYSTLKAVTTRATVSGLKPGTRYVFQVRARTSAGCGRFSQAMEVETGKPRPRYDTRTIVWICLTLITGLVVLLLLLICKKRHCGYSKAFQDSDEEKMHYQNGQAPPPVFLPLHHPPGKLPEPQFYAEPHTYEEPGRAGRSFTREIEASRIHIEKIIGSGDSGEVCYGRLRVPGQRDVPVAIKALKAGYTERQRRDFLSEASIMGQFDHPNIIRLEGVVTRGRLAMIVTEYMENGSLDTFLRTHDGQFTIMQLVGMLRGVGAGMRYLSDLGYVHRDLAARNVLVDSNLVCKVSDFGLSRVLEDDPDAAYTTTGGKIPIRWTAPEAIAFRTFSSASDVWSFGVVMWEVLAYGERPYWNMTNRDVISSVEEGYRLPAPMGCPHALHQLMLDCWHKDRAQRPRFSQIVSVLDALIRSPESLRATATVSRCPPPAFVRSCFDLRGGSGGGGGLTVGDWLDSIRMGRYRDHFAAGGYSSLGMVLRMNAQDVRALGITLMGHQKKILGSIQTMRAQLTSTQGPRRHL
Procedure, shortened: as §1

[8] = target: T8, CDK5/p25 (Homo sapiens, UniProt Q00535)
T8 construct: purchased Reaction Biology Corp
Procedure, shortened: as §1

[9] = read-out: % Enzyme Activity (relative to DMSO controls) AVG
[10] = read-out: % Enzyme Activity (relative to DMSO controls) Data 1
[11] = read-out: % Enzyme Activity (relative to DMSO controls) Data 2

T5 sequence (P57059 whole entry): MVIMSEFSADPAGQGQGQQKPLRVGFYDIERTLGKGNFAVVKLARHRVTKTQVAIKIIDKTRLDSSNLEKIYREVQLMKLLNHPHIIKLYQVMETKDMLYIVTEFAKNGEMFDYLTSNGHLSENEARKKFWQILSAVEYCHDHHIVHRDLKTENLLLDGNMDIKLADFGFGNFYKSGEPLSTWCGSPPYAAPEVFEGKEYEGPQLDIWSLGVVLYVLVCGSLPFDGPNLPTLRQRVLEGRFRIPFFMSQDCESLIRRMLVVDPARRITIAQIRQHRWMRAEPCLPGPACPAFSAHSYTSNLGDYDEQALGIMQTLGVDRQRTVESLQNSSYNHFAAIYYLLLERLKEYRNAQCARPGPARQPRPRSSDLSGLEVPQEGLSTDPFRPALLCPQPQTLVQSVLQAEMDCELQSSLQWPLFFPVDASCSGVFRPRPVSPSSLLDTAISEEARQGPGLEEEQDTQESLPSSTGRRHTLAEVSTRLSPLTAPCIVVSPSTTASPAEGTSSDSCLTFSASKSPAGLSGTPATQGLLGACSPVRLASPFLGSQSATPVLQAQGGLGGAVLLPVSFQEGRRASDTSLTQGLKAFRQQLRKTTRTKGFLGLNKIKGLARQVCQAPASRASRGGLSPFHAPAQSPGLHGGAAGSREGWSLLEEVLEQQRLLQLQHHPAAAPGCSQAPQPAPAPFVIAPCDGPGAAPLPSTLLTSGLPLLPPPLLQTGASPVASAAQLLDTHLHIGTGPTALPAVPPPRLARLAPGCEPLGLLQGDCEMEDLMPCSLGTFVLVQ
T8 sequence (Q00535 whole entry): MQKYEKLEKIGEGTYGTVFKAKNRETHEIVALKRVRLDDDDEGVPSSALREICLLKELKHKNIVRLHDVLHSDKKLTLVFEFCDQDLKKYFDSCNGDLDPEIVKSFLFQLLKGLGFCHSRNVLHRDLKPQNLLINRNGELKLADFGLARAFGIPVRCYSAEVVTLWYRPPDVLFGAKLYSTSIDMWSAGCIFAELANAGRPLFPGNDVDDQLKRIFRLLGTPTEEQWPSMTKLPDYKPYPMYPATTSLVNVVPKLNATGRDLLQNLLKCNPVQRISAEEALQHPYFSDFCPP
T8 sequence (Q15078 99-307 partner limits assumed): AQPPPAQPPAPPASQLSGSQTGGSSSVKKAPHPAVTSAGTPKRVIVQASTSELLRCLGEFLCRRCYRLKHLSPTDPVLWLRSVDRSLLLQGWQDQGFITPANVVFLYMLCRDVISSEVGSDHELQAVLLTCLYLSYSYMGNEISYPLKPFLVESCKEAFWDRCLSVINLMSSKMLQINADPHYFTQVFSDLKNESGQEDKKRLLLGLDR
T3 sequence (Q96SB4 whole entry): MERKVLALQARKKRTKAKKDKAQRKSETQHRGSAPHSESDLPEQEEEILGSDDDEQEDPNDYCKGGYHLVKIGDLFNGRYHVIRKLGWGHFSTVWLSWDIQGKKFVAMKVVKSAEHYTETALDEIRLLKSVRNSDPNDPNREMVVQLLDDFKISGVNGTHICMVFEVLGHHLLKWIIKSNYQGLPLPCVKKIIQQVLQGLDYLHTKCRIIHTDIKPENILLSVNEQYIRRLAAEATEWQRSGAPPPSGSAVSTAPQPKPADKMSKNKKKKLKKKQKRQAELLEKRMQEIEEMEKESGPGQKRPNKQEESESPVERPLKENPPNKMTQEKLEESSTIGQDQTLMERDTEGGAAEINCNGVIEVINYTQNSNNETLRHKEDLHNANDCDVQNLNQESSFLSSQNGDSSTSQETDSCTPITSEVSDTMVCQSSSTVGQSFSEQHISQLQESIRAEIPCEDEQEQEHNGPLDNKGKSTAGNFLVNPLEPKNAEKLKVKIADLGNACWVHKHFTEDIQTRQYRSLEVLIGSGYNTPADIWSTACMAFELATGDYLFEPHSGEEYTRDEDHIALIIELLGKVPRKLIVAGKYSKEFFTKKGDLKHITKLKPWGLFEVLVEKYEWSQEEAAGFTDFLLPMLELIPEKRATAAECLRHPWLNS
T2 sequence (Q15759 whole entry): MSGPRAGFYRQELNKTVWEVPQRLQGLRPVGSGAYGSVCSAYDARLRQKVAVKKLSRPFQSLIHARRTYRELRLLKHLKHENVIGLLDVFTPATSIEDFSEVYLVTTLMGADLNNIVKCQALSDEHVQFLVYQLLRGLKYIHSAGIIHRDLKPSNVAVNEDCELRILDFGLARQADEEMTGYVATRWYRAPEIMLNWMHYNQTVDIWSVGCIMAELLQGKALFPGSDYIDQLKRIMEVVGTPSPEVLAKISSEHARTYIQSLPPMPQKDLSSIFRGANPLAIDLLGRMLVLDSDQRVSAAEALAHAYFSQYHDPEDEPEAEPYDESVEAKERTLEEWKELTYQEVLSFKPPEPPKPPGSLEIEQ
T4 sequence (Q15418 whole entry): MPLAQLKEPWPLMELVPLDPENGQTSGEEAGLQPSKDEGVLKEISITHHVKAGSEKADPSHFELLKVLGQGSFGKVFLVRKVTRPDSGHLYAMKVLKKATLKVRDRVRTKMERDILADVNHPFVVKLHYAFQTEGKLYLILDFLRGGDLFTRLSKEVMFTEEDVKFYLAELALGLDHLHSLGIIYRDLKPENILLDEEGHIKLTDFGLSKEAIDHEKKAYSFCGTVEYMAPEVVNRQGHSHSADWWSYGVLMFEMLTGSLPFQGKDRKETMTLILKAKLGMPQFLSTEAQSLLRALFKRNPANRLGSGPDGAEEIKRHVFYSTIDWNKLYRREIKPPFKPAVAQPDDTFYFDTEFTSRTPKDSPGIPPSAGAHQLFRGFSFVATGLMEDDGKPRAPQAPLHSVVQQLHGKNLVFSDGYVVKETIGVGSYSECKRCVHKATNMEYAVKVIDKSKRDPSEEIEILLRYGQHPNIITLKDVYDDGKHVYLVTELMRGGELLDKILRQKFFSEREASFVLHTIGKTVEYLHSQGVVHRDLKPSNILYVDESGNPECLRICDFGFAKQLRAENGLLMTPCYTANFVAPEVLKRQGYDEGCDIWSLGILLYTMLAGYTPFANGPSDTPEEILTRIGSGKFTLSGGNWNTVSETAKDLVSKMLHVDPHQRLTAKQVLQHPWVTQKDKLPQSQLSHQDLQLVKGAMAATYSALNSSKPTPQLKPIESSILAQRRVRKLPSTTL

CC(C)(C)C(=O)N1N=CC[C@H]1c1ccccc1 [GSK′963]
remaining activity at 10 µM [1, 9]: 104%
remaining activity at 10 µM [1, 10]: 103%
remaining activity at 10 µM [1, 11]: 105%
remaining activity at 10 µM [2, 9]: 102%
remaining activity at 10 µM [2, 10]: 104%
remaining activity at 10 µM [2, 11]: 99.3%
remaining activity at 10 µM [3, 9]: 97.7%
remaining activity at 10 µM [3, 10]: 93.2%
remaining activity at 10 µM [3, 11]: 102%
remaining activity at 10 µM [4, 9]: 126%
remaining activity at 10 µM [4, 10]: 123%
remaining activity at 10 µM [4, 11]: 128%
remaining activity at 10 µM [5, 9]: 113%
remaining activity at 10 µM [5, 10]: 113%
remaining activity at 10 µM [5, 11]: 113%
remaining activity at 10 µM [6, 9]: 97.2%
remaining activity at 10 µM [6, 10]: 97.1%
remaining activity at 10 µM [6, 11]: 97.3%
remaining activity at 10 µM [7, 9]: 96.6%
remaining activity at 10 µM [7, 10]: 97.5%
remaining activity at 10 µM [7, 11]: 95.7%
remaining activity at 10 µM [8, 9]: 97%
remaining activity at 10 µM [8, 10]: 98.1%
remaining activity at 10 µM [8, 11]: 95.8%
